# Experiments:
# Test in all cases: Cell proliferation assay (Alamar Blue)
# Assay type in all cases: cell-based
# 22RV1 = conditions: Homo sapiens, 144 h; 22RV1 tumor cell line; 6 days
# Protocol: (§1) 1. Instruments and Materials • Thermo 311 CO2 incubator; Haier biosafety cabinet; Molecular Devices microplate reader; Xiangyi brand L530 desktop low speed centrifuge; Olympus IX51 inverted fluorescence microscope, DMEM, RPMI 1640, MEM, DMEM/F12 1:1 medium, Fetal bovine serum, 0.25% trypsin solution, phosphate buffer (Thermo Fisher Shanghai Co., Ltd.); sigma dimethyl sulfoxide (DMSO), resazurin; 54 commercial tumor cell lines (including 26 liver cancer cell lines). Experimental drugs: compounds 1-12 and active drug Linifanib; chemotherapeutic drug Doxorubicin (HY-15142; Shanghai Qianyuan Biomedical Technology Co., Ltd.).
# (§2) 2. Experimental Methods • 2.1 Cultivation of different cell lines • 54 cell lines were cultured in a culture medium containing fetal bovine serum and placed in a 5% CO 2 incubator at 37° C. for incubation. The cells were all grown in an adherent state, and the growth was observed under an inverted microscope, and subculture was performed when the cell confluence rate reached 80%-90%. The proportion and quantity of passage were determined by experimental needs. The ratio of subculture of this cell line was generally 1:2^˜1:3. • 2.2 inhibition effect on the proliferation of different tumor cell lines • Cell test: 54 cell lines in logarithmic growth phase were inoculated in 96-well culture plates at 500^˜1×10^4/well (the optimal seeding density of each cell line was determined in pre-experiment), After incubating at 37° C. for 4 h in a 5% CO2 humidification incubator, added 10 μL of compounds 1-12 or Linifanib to each well, and tested 9 drug concentration gradients for each compound (diluted from the highest concentration of the test by 3.16 times). The solubility of each compound was different at a starting concentration of 30 or 100 μM, respectively. The QC reference compound Doxorubicin was added simultaneously to each cell line test, and the final drug concentrations were 10, 3.16, 1, 0.31, 0.1, 0.03, 0.01, 0.003, and 0.001 μM, respectively. In addition, a positive control group (100% inhibition) and a negative control group (0% inhibition) were set at the same time. The drug group was repeated for 2 wells per concentration, and the positive control group and the negative control group were repeated for 6 wells. After the culture was continued for 6 days in the incubator, AlamarBlue test operation was followed; • AlamarBlue test procedure: Incubated with 10 μL of AlamarBlue reagent per well for 1-4 h, shook for 1-2 min, MD microplate reader EX: 560 nm, EM: 590 nm wavelength to measure fluorescence, recorded the results, calculated the cell inhibition rate of the compound of the invention. Cell inhibition rate (%)=(A0% inhibition−A administration)/(A0% inhibition−A100% inhibition)×100%, and then using the method of nonlinear regression using Graph Pad Prism 5.0 or MATILAB software (usually using four parameters) to graph and obtain a drug dose response curve to obtain an IC50 value of the compound of the present invention acting on a cancer cell line.
# CCRF-CEM = conditions: Homo sapiens, 144 h; CCRF-CEM tumor cell line; 6 days
# Protocol: as §1, §2
# DLD1 = conditions: Homo sapiens, DLD-1, 144 h; DLD1 tumor cell line; 6 days
# Protocol: as §1, §2
# HCCLM3 = conditions: Homo sapiens, 144 h; HCCLM3 tumor cell line; 6 days
# Protocol: as §1, §2
# HLE = conditions: Homo sapiens, 144 h; HLE liver cancer cell line; 6 days
# Protocol: as §1, §2
# HLF = conditions: 144 h; HLF liver cancer cell line; 6 days
# Protocol: as §1, §2
# HT55 = conditions: Homo sapiens, 144 h; HT55 tumor cell line; 6 days
# Protocol: as §1, §2
# HUH1 = conditions: Homo sapiens, HuH-1, 144 h; HUH1 liver cancer cell line; 6 days
# Protocol: as §1, §2
# Hep3B2.1-7 = conditions: 144 h; Hep3B2.1-7 liver cancer cell line; 6 days
# Protocol: as §1, §2
# JHH2 = conditions: JHH-2, 144 h; JHH2 liver cancer cell line; 6 days
# Protocol: as §1, §2
# JHH4 = conditions: JHH-4, 144 h; JHH4 liver cancer cell line; 6 days
# Protocol: as §1, §2
# JHH5 = conditions: 144 h; JHH5 liver cancer cell line; 6 days
# Protocol: as §1, §2
# JHH6 = conditions: 144 h; JHH6 liver cancer cell line; 6 days
# Protocol: as §1, §2
# KASUMI-1 = conditions: Homo sapiens, 144 h; KASUMI-1 (leukemia cells); 6 days
# Protocol: as §1, §2
# Li-7 = conditions: 144 h; Li-7 liver cancer cell line; 6 days
# Protocol: as §1, §2
# MG63 = conditions: Homo sapiens, MG-63, 144 h; MG63 tumor cell line; 6 days
# Protocol: as §1, §2
# SNU398 = conditions: Homo sapiens, SNU-398, 144 h; SNU398 liver cancer cell line; 6 days
# Protocol: as §1, §2
# SNU423 = conditions: Homo sapiens, SNU-423, 144 h; SNU423 liver cancer cell line; 6 days
# Protocol: as §1, §2
# SNU449 = conditions: Homo sapiens, SNU-449, 144 h; SNU449 liver cancer cell line; 6 days
# Protocol: as §1, §2
# SNU761 = conditions: 144 h; SNU761 liver cancer cell line; 6 days
# Protocol: as §1, §2
# SNU886 = conditions: SNU-886, 144 h; SNU886 liver cancer cell line; 6 days
# Protocol: as §1, §2
# SW620 = conditions: Homo sapiens, SW-620, 144 h; SW620 tumor cell line; 6 days
# Protocol: as §1, §2
# TE-6 = conditions: Homo sapiens, 144 h; TE-6 tumor cell line; 6 days
# Protocol: as §1, §2
IC50 (22RV1),IC50 (CCRF-CEM),IC50 (DLD1),IC50 (HCCLM3),IC50 (HUH1),IC50 (Hep3B2.1-7),IC50 (SNU398),IC50 (SNU423),IC50 (SNU449),IC50 (SNU761),SMILES,IC50 (HLE),IC50 (HLF),IC50 (HT55),IC50 (JHH2),IC50 (JHH4),IC50 (JHH5),IC50 (JHH6),IC50 (KASUMI-1),IC50 (Li-7),IC50 (MG63),further results
10.3 µM,10.2 µM,20.3 µM,25.7 µM,7.93 µM,5.33 µM,17.1 µM,26.1 µM,14.6 µM,29.1 µM,Cc1ccc(F)c(NC(=O)Nc2ccc(-c3cccc4c3c(N)nn4C(=O)C[C@H](N)C(=O)N[C@@H](CCC(=O)N[C@@H](CCC(=O)N[C@@H](CCC(=O)N[C@@H](CCC(=O)N[C@@H](CCC(=O)N[C@@H](CCC(=O)N[C@@H](CCC(=O)N[C@@H](CCC(=O)N[C@@H](CCC(=O)O)C(=O)O)C(=O)O)C(=O)O)C(=O)O)C(=O)O)C(=O)O)C(=O)O)C(=O)O)C(=O)O)cc2)c1 [Compound 3],4.72 µM,7.73 µM,31.3 µM,40.7 µM,12.1 µM,31 µM,7.51 µM,0.19 µM,10.1 µM,27.1 µM,IC50 (SNU886): 9.06 µM; IC50 (SW620): 10.4 µM; IC50 (TE-6): 11.3 µM
> 100 µM,51.7 µM,> 100 µM,82 µM,66.8 µM,69.8 µM,96.5 µM,> 100 µM,> 100 µM,85 µM,Cc1ccc(F)c(NC(=O)Nc2ccc(-c3cccc4c3c(N)nn4C(=O)CCCCCNC(=O)C[C@H](N)C(=O)N[C@@H](CCC(=O)O)C(=O)O)cc2)c1 [Compound 4],47.5 µM,52.6 µM,> 100 µM,> 100 µM,42.5 µM,> 100 µM,67.7 µM,1.71 µM,47.2 µM,94.5 µM,IC50 (SNU886): 96.2 µM; IC50 (SW620): 71.4 µM; IC50 (TE-6): > 100 µM
> 100 µM,15 µM,97 µM,> 100 µM,21.2 µM,13 µM,18.1 µM,> 100 µM,31.6 µM,> 100 µM,Cc1ccc(F)c(NC(=O)Nc2ccc(-c3cccc4c3c(N)nn4C(=O)CCCCCCCCCCCNC(=O)C[C@H](N)C(=O)N[C@@H](CCC(=O)O)C(=O)O)cc2)c1 [Compound 7],36.3 µM,24.4 µM,> 100 µM,> 100 µM,39.4 µM,> 100 µM,23.6 µM,0.096 µM,34.5 µM,73 µM,IC50 (SNU886): 22 µM; IC50 (SW620): 21.9 µM; IC50 (TE-6): 74.3 µM

# Further lines, the compound ahead of its results:
SMILES,IC50 (22RV1),IC50 (CCRF-CEM),IC50 (DLD1),IC50 (HCCLM3),IC50 (HUH1),IC50 (Hep3B2.1-7),IC50 (SNU398),IC50 (SNU423),IC50 (SNU449),IC50 (SNU761),IC50 (HLE),IC50 (HLF),IC50 (HT55),IC50 (JHH2),IC50 (JHH4),IC50 (JHH5),IC50 (JHH6),IC50 (KASUMI-1),IC50 (Li-7),IC50 (MG63),further results
Cc1ccc(F)c(NC(=O)Nc2ccc(-c3cccc4c3c(N)nn4C(=O)C[C@H](N)C(=O)N[C@@H](CCC(=O)O)C(=O)O)cc2)c1 [Compound 1],6.69 µM,2.5 µM,9.86 µM,11.4 µM,4.42 µM,1.59 µM,2.61 µM,9.03 µM,5.21 µM,9.53 µM,1.98 µM,3.98 µM,16.8 µM,28.9 µM,2.62 µM,15.2 µM,3 µM,0.051 µM,5.35 µM,7.69 µM,IC50 (SNU886): 1.47 µM; IC50 (SW620): 2.79 µM; IC50 (TE-6): 4.29 µM
Cc1ccc(F)c(NC(=O)Nc2ccc(-c3cccc4c3c(N)nn4C(=O)C[C@H](N)C(=O)N[C@@H](CCC(=O)N[C@@H](CCC(=O)N[C@@H](CCC(=O)N[C@@H](CCC(=O)O)C(=O)O)C(=O)O)C(=O)O)C(=O)O)cc2)c1 [Compound 2],7.81 µM,6.33 µM,14 µM,15.8 µM,6.71 µM,3.43 µM,6.37 µM,14.4 µM,8.39 µM,15.3 µM,2.69 µM,4.94 µM,20.4 µM,36 µM,5.83 µM,21.3 µM,4.38 µM,0.12 µM,7.26 µM,15.8 µM,IC50 (SNU886): 3.75 µM; IC50 (SW620): 4.67 µM; IC50 (TE-6): 7.03 µM
Cc1ccc(F)c(NC(=O)Nc2ccc(-c3cccc4c3c(N)nn4C(=O)CCCCCNC(=O)C[C@H](N)C(=O)N[C@@H](CCC(=O)N[C@@H](CCC(=O)N[C@@H](CCC(=O)N[C@@H](CCC(=O)O)C(=O)O)C(=O)O)C(=O)O)C(=O)O)cc2)c1 [Compound 5],> 100 µM,70.3 µM,> 100 µM,> 100 µM,82.3 µM,76.5 µM,> 100 µM,> 100 µM,> 100 µM,> 100 µM,53.4 µM,63.9 µM,> 100 µM,> 100 µM,60.3 µM,> 100 µM,79.3 µM,3.21 µM,59.1 µM,> 100 µM,IC50 (SNU886): > 100 µM; IC50 (SW620): > 100 µM; IC50 (TE-6): > 100 µM
Cc1ccc(F)c(NC(=O)Nc2ccc(-c3cccc4c3c(N)nn4C(=O)CCCCCNC(=O)C[C@H](N)C(=O)N[C@@H](CCC(=O)N[C@@H](CCC(=O)N[C@@H](CCC(=O)N[C@@H](CCC(=O)N[C@@H](CCC(=O)N[C@@H](CCC(=O)N[C@@H](CCC(=O)N[C@@H](CCC(=O)N[C@@H](CCC(=O)O)C(=O)O)C(=O)O)C(=O)O)C(=O)O)C(=O)O)C(=O)O)C(=O)O)C(=O)O)C(=O)O)cc2)c1 [Compound 6],> 100 µM,90.5 µM,> 100 µM,> 100 µM,> 100 µM,95.6 µM,> 100 µM,> 100 µM,> 100 µM,> 100 µM,68.9 µM,82.1 µM,> 100 µM,> 100 µM,79 µM,> 100 µM,> 100 µM,4.94 µM,82 µM,> 100 µM,IC50 (SNU886): > 100 µM; IC50 (SW620): > 100 µM; IC50 (TE-6): > 100 µM

# Source: patent US11351151B2, “Compound having anticancer activity and preparation method and application” (3D Medicines (Beijing) Co., Ltd., priority 2016, dated 2022)
